Results as given in a melting point compilation (Tetko et al.; mined from patent text by program, amines drawn as free bases though some values may be those of a salt).

Row | Compound | melting point
1 | CCc1ccc(Cc2cn(C3OC(COC(=O)c4ccccc4)C(F)C(OC(=O)c4ccccc4)C3OC(=O)c3ccccc3)c3cccc(Cl)c23)cc1 (stereo unspecified) | 137 to 138 °C
2 | COc1ccc(C(C)=Cc2ccncc2)c2c1OC(C)(C)C2 | 85 to 87 °C
3 | COC(C)Cc1nc2c(N)nc3ccccc3c2n1CC(C)C (stereo unspecified) | 139 to 141 °C
4 | O=c1oc2c3c(n(-c4ccccc4)c(=O)c2c(O)c1Sc1ccccc1)-c1ccccc1C3 | 274 to 275 °C
5 | Cc1cccc(C=CC(=O)C=Cc2cccc(C)c2)c1 | 68 to 72 °C
6 | CCCC12CCC3C4CCC(=O)C=C4CCC3C1CCC2OC(=O)CCc1ccccc1 (stereo unspecified) | 104 to 108 °C
7 | Cn1nc(-c2ccccc2)cc1Cl | 61 to 62 °C
8 | Nc1cc(-n2ccc(=O)cc2)ccc1[N+](=O)[O-] | 298 to 303 °C
9 | Cc1cccc(N=C2NCCN2)c1C | 141 to 144 °C
10 | C=CCOc1cc(-n2nc(C)c(C)c2C)c(F)cc1Cl | 97 to 99 °C
11 | CC[C@@H](NC(=O)N1CC(=O)NC[C@H](Cc2cc(Cl)ccc2OC)C1=O)c1ccc(C(=O)O)c(N)c1 | 139 to 140 °C
12 | O=C(Nc1c([N+](=O)[O-])cc(F)c(Cl)c1F)C(F)(F)F | 124 to 125 °C
13 | CC(=O)NC1CCN(c2ncc3ncnc(Nc4ccc(F)c(Cl)c4)c3n2)CC1 | 263 to 265 °C
14 | OCC1(CO)CC=CC1 | 168 to 170 °C
15 | CCc1[nH]c(=O)[nH]c1C(O)c1ccncc1 (stereo unspecified) | 234 to 236 °C
16 | CC(=O)Nc1ccc(C(=O)Nc2ccc(O)cc2)cc1 | 275 to 277 °C
17 | O=C(Nc1ccc(-n2nc(C(F)(F)F)cc2C(F)(F)F)cc1)c1ccccc1Oc1ccccc1 | 108 to 109 °C
18 | CCC1(CC)CN(C(C)(C)C)C(=O)C(CC)(CC)N1OC(C)c1ccccc1 (stereo unspecified) | 85 to 90 °C
19 | Nc1c([N+](=O)[O-])sc2ccc(C(F)(F)F)cc12 | 198 to 201 °C
20 | CC(=O)N[C@@H](CS)C(=O)NCCSC(=O)c1ccccc1 | 128 to 130 °C
21 | Cc1cc(N(C)CCO)cc(C)n1 | 139 to 144 °C
22 | Cc1ccc(NS(=O)(=O)c2ccc([N+](=O)[O-])cc2)cc1 | 170 to 172 °C
23 | FCc1cc(-c2nnc3c4ccccc4c(OCc4nc[nH]n4)nn23)no1 | 266 to 268 °C
24 | O=C(O)c1ccc2c(c1)Sc1ccccc1S2 | 220 °C
25 | CCOC(OCC)C(C#N)(C=O)Cc1cc(OC)c(OC)c(OC)c1 (stereo unspecified) | 109 to 115 °C
26 | O=C(O)c1cc(Oc2ccccc2)ccc1O | 126 to 128 °C
27 | N#CCOc1cc2c(cc1C#Cc1ccccc1)NC(=O)CC(c1cccc(-n3ccnc3)c1)=N2 | 214 °C

Row | Compound | melting point
28 | CCOC(=O)c1cnc2c(cnn2-c2ccccc2)c1N(Cc1cccnc1)S(=O)(=O)c1ccc(OC)cc1 | 89 to 91 °C
29 | Cc1ncsc1C(=O)Nc1ccc(-n2nc(C(F)(F)F)cc2C2CC2)c(F)c1 | 95 to 97.6 °C
30 | O=C(c1ccc(-c2ccncc2)cc1)N1CCN(S(=O)(=O)c2nc3ccc(Cl)cc3[nH]2)CC1 | 242 to 244 °C
31 | COc1cc(Nc2c(C#N)cnc3cc(-c4ccc(C(N)=O)cc4)sc23)c(Cl)cc1Cl | > 300 °C
32 | O=C(O)CCC(CCCCNS(=O)(=O)c1ccc(Cl)cc1)CCCc1cccnc1 (stereo unspecified) | 116 to 118 °C
33 | CC(=Cc1c(Cl)cc(N(C)C)cc1Cl)[N+](=O)[O-] | 105 to 110 °C
34 | CCN(CC)CCN=C=S | 83 to 83.5 °C
35 | CCOc1ccccc1Sc1ccc(/C=C/C(=O)N2CCCC(C(=O)O)C2)cc1Cl (stereo unspecified) | 166 to 171 °C
36 | CC(C)(C)OC(=O)N1CCN(CC(=O)Nc2ccc(CC#N)cc2)CC1 | 137 to 138 °C
37 | CC(C)(C)c1ccc2c(c1)C(C(=O)O)c1ccccc1CO2 (stereo unspecified) | 197 to 198 °C
38 | O=C(c1ccc(Cl)cc1)c1cccc2c1CCC2C(=O)O (stereo unspecified) | 137 to 139 °C
39 | Clc1cc2c(cc1Br)C(=C1CCNCC1)c1ncccc1CO2 | 198 to 199 °C
40 | Cc1nc(N)c2nc(CCO)n(NC3CCOCC3)c2c1C | 190 to 192 °C
41 | CC(C)n1nc(-c2sc(NC(=O)n3c4ccccc4c4ccccc43)nc2-c2ccccc2)ccc1=O | 241 to 242 °C
42 | CCCCC(=NNC(=O)OCC)c1ccncc1 | 102 °C
43 | COC(=O)c1ccc(S(C)(=O)=O)c(OS(=O)(=O)C(F)(F)F)c1Cl | 69 °C
44 | O=C(OCc1ccccc1)On1nnc2ccccc21 | 130 to 131 °C
45 | CCS(=O)(=O)Nc1cc(-n2nc3ccc(Cl)cn3c2=O)c(F)cc1Cl | 120 to 122 °C
46 | CN1C(=O)Cc2c(Cl)cc(Cl)cc21 | 144 to 145 °C
47 | COc1ccc(CN2CC(NC(=O)c3ccc(OCC=C(C)CCC=C(C)C)cc3)CN2Cc2ccc(OC)cc2)cc1 | 123 to 124 °C
48 | Cc1cccc(C)c1N(CCCC(=O)O)C(=O)CN(C(=O)c1ccc(Cl)cc1)c1c(C)cccc1C | 214 to 216 °C
49 | CN1CC2CC2(C(=O)O)C1 (stereo unspecified) | 193 to 195 °C
50 | COC(=O)c1cc(C(=O)NC2CCOCC2)c2cc(Cc3ccc(F)cc3)cnc2c1O | 246 to 247 °C
51 | O=C(O)CN(CCc1ccccc1)C(=O)CCc1nc2c(F)c(F)cc(F)c2s1 | 139 to 140 °C
52 | Cc1ccc(C(=O)N[C@H]2CC[C@H](CCN3CCN(c4nccc5c4OCC5)CC3)CC2)cn1 | 204 °C
53 | Nc1cc(=O)n(Cc2ccc(Cl)c(Cl)c2)[nH]1 | 159 °C

Further lines, results first:

Row | melting point | Compound
54 | 172 to 174 °C | N#Cc1c(N2CCCCC2)cc(-c2cccs2)c2c1-c1ccccc1C2=O
55 | 186 to 188 °C | NC(=O)CN1C(=O)CC2Cc3c(Cl)cccc3C21 (stereo unspecified)
56 | 86 to 87.5 °C | Cc1cc(Br)ccc1C(=O)NCc1ccccn1
57 | 206 to 208 °C | COc1ccc(Cn2c3ccccc3c3c(N)c(C(=O)O)c(C)nc32)cc1
58 | 82 to 85 °C | CCOC(=O)C1CCc2ccc(N)c(C)c2O1 (stereo unspecified)
59 | 156 to 158 °C | OC1(c2ccc(Br)cc2)CCC2(CC1)OCCO2
60 | 124 to 126 °C | c1ccc2c(c1)c1ccccc1n2CCCCCCn1c2ccccc2c2ccccc21
61 | 187 to 188 °C | O=C(Cn1cccc(OCc2ccccc2)c1=O)ON1C(=O)CCC1=O
62 | 131 to 134 °C | COC(=O)c1nn(Cc2ccc(Br)cc2F)c(=O)c2ccc(F)cc12
63 | 212 °C | O=C(O)Cc1cc(C(=O)C=Cc2ccc(F)cc2)ccc1O
64 | 269 to 270 °C | COc1cccc(Sc2c(O)c3c(Cl)cc(Cl)cc3[nH]c2=O)c1
65 | 225 to 227 °C | COC(=O)c1scc(-c2ccccc2)c1S(=O)(=O)NC(=O)Nc1nc(OC)cc(OC)n1
66 | 171 to 172 °C | O=C(Nc1cccnc1)N1CCN(c2cc(-c3ccc(F)cc3F)ncn2)CC1
67 | 203 to 205 °C | CCCc1ccc2oc(C(=O)c3ccncc3)c(C)c2c1O
68 | 106 to 108 °C | CCOC(=O)NC(C)C(=O)c1ccc(O)c(Cl)c1 (stereo unspecified)
69 | 210 °C | COC(=O)c1ccc(SCn2cc(I)cnc2=O)cc1
70 | 130 to 133 °C | CCC(=O)C1OC(O)C(O)C1OCc1ccccc1Cl (stereo unspecified)
71 | 205 to 210 °C | N#Cc1cc(/C=C/C(=O)Nc2ccc(Br)cc2)ccc1F
72 | 144 to 146 °C | COC(=O)c1ccc(-c2ncccc2S(=O)(=O)Nc2ncc(C)nc2OC)cc1
73 | 131 to 132 °C | c1cc(COc2ccc(OCc3ccc4ccccc4n3)cc2)cc(OCc2nnn[nH]2)c1
74 | 219 to 221 °C | O=C(NCC1CC(=O)N(Cc2ccccc2)c2ccccc2N1C(=O)CN1C(=O)c2ccccc2C1=O)OCc1ccccc1 (stereo unspecified)
75 | 189 to 190 °C | N=c1cc(NC(=S)NCc2ccccc2)nc2n1CCCS2
76 | 214 to 218 °C | CC1(C2=CCC3C4CCC5CC(O)CCC5(C)C4C(O)CC23C)OCCO1 (stereo unspecified)
77 | 188 to 189 °C | CCCc1c(OCCCOc2cc(NC(=O)C(=O)O)c(C)cc2Cl)ccc(C(C)=O)c1O

Row | melting point | Compound
78 | 275 to 277 °C | COc1cc(OC)c2c(=O)[nH]c(-c3ccc(OCC(=O)O)c(OC)c3)nc2c1
79 | 180 to 182 °C | O=C(O)C=Cc1ccc(O)c(Cl)c1
80 | 125 to 127 °C | CONC(=O)c1nsc2ccc(-n3c(=O)cc(C(F)(F)F)n(C)c3=O)cc12
81 | 94 to 95 °C | CC(C)N(CCS(=O)(=O)c1ccc(F)cc1)C(=O)Oc1ccccc1
82 | 107 to 108 °C | CC(C)Oc1nn(CCO)cc1C(=O)NCc1ccc(C(F)(F)F)cc1
83 | 93 to 96 °C | N#CC1OC(=O)c2cccc(F)c21 (stereo unspecified)
84 | 174 to 176 °C | Cc1oc(-c2ccccc2)nc1CCOc1ccc(C[C@H](NC(=O)C(F)=Cc2ccccc2)C(=O)O)cc1
85 | 212 to 214 °C | O=C1c2ccccc2-c2c1c(Cl)nc1cc(OCc3ccccc3)ccc21
86 | 140 to 142 °C | Cc1c(CC(=O)O)c2cc(OCc3ccccc3)ccc2n1Cc1ccc(Cl)cc1
87 | 135 to 136 °C | O=C1c2c(ccc3c2OCCO3)S(=O)(=O)N1CCCCBr
88 | 112 to 114 °C | CCCCCCCCCCCCCCCCCC(=O)NCC(O)CO (single isomer, unassigned; (+))
89 | 235 to 236 °C | O=C1C(=C2C=C(c3ccccc3)S(=O)(=O)C(c3ccccc3)=C2)C(=O)c2ccccc21
90 | 276 to 280 °C | CCOP(=O)(O)Cc1nnc2c(=O)[nH]c3cc(C(F)(F)F)ccc3n12
91 | 166 to 168 °C | CCOC(=O)c1cc(=O)c2cccc(NC(=O)c3ccc4c(c3)CC(COCc3ccccc3)O4)c2o1 (stereo unspecified)
92 | 155 to 160 °C | O=C1c2ccccc2C(=O)c2c1cccc2N1CCC(C2CCNCC2)CC1
93 | 159 to 161 °C | C=CCOC(=O)Nc1nsc(N)n1
94 | 159 to 160 °C | CC1(C)OC=C(CS(=O)(=O)c2ccc(F)cc2)C1=O
95 | 124 to 126 °C | Cc1c(CC(=O)OCCO[N+](=O)[O-])cc(-c2ccc(S(C)(=O)=O)cc2)n1-c1ccccc1
96 | 78 to 79 °C | CCOC(=O)c1cc2c(C)cccc2n1CCC(=O)OC(C)(C)C
97 | 130 to 132 °C | CCCCN1CCN(CCCC)C2SC(=C3C(=O)CC(c4ccccc4)CC3=O)SC21 (stereo unspecified)
98 | 68 to 70 °C | COc1ccccc1Oc1ccccc1N
99 | 93 to 96 °C | O[C@@H](CNCCOc1ccc2oc(-c3ccon3)cc2c1)COc1ccccc1Cl
100 | 56 to 58.5 °C | OCCc1ccc(OCC2CO2)cc1 (stereo unspecified)
101 | 169 to 171 °C | CC(C)COc1c(-c2ccc(S(N)(=O)=O)cc2)cnn(-c2ccc(F)c(F)c2)c1=O
